Measurements as given in patent US7084151B2 (Ligand Pharmaceuticals Incorporated, priority 2002, dated 2006).
Like-named read-outs stand apart in the source and are kept apart here.

What was measured:
PR [1] = target: T1, PR (Homo sapiens, UniProt P06401); experiment: Cotransfection assay, PR agonist activity in CV-1 cells; format: cell-based; settings: for Emax: CV-1, read-out: PR Agonist CV-1 Cells Efficacy
T1 construct: expressed in transfected cells; host or cells: CV-1 cells (African green monkey kidney fibroblasts), transiently transfected
T1 sequence (P06401 1-933): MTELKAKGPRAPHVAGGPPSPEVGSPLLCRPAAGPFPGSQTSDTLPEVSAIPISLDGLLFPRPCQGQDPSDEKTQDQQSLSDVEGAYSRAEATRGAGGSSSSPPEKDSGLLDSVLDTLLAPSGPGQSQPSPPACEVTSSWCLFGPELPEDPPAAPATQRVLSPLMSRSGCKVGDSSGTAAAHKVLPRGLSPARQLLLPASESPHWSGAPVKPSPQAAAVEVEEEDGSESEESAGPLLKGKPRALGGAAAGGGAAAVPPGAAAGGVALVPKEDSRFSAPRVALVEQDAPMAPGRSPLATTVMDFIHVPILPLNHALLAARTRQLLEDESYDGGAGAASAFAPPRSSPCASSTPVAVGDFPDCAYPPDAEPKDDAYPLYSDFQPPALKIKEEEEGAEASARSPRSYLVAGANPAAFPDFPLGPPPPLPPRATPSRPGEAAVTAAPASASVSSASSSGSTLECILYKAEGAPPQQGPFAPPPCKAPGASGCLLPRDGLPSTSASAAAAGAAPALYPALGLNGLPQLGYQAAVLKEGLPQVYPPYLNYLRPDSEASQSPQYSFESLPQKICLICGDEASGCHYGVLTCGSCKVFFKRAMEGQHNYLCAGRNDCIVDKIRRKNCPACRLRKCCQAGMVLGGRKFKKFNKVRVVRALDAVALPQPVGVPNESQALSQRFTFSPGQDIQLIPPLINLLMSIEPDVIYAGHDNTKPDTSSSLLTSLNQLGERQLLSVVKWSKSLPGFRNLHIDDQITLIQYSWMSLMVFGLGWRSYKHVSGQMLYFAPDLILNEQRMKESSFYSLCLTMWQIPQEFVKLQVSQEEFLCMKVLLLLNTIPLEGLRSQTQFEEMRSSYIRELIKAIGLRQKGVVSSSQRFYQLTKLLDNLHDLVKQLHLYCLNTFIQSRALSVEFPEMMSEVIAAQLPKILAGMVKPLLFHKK
Protocol: (§1) Briefly, the cotransfection assays were carried out in CV-1 cells (African green monkey kidney fibroblasts), which were transiently transfected, by the standard calcium phosphate coprecipitation procedure (Berger, et al., J. Steroid Biochem. Mol. Bio. 1992, 41, 733–738) with the Plasmid containing receptor, MTV-LUC reporter, pRS-β-Gal, and filler DNA (Rous sarcoma virus chloramphenicol acetyltransferase). […] All the cotransfection experiments were carried out in 96-well plates by automation (Beckman Biomomek automated workstation).

PR [2] = target: T1, PR; experiment: Cotransfection assay, PR antagonist activity in CV-1 cells; format: cell-based; settings: for Emax: percent maximal response relative to reference antagonist, read-out: PR Antagonist CV-1 Cells Efficacy
Protocol: as §1

hPR-A = target: T2, hPR-A (Homo sapiens, UniProt P06401); experiment: Receptor competitive binding assay; settings: read-out: PR Binding Ki
T2 sequence (P06401 1-769 isoform P06401-2): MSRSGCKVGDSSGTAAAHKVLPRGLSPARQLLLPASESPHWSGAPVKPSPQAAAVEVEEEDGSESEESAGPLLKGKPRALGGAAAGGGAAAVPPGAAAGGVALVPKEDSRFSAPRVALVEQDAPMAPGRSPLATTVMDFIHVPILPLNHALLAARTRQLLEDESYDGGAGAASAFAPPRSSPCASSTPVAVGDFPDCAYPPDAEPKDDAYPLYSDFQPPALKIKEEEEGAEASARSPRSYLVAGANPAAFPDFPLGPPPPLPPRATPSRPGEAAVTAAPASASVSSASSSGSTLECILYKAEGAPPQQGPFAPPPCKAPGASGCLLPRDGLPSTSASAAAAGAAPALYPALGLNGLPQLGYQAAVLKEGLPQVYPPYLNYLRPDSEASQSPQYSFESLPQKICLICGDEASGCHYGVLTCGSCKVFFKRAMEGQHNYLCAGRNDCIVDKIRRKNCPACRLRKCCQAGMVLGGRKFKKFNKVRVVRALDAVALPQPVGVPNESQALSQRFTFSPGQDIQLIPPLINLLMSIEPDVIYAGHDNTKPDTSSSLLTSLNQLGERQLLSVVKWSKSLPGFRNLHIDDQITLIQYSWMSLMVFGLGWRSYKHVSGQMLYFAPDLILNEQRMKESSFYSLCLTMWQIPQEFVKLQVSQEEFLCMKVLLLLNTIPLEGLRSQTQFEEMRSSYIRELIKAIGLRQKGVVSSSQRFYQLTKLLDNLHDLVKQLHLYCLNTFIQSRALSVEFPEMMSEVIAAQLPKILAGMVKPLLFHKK
Description: The preparation of receptor binding assays for hPR-A was described in literature (Pathirana, et al., Mol. Pharm. 1995, 47, 630–635.)

[3] = CV-1 cells, MTV-LUC reporter, read-out: PR Agonist CV-1 Cells Potency (EC50)
[4] = CV-1 cells, MTV-LUC reporter, read-out: PR Antagonist CV-1 Cells Potency (IC50)

Emax (PR [1]) | Emax (PR [2]; CV-1 cells) | Ki (hPR-A) | EC50 (PR [1]; [3]) | IC50 (PR [2]; [4]) | SMILES | EC50 (PR [1]) | IC50 (PR [2]) | melting point | PR Agonist CV-1 Cells Efficacy (PR [1]; CV-1 cells, percent maximal response relative to progesterone)
56% | < 20% | 14 nM | 32 nM | > 1000 nM | COc1ccc2c(c1)OC(=C1SCCCS1)c1c-2ccc2c1C(C)=CC(C)(C)N2 [Compound 13, 8-methoxy-5-(1,3-dithia-2-cyclohexylidene)-1,2-dihydro-2,2,4-trimethyl-5H-chromeno[3,4-f]quinoline] |  |  |  | 
155% | < 20% | 3.7 nM | 5.3 nM | > 1000 nM | CC1=CC(C)(C)Nc2ccc3c(c21)C(=C1SCCCS1)Oc1c(F)cc(F)cc1-3 [Compound 15, 7,9-difluoro-5-(1,3-dithia-2-cyclohexylidene)-1,2-dihydro-2,2,4-trimethyl-5H-chromeno[3,4-f]quinoline] |  |  |  | 
107% | < 20% | 4.3 nM | 11 nM | > 1000 nM | CC1=CC(C)(C)Nc2ccc3c(c21)C(=C1SCCCS1)Oc1c(F)cccc1-3 [Compound 17, 7-fluoro-5-(1,3-dithia-2-cyclohexylidene)-1,2-dihydro-2,2,4-trimethyl-5H-chromeno[3,4-f]quinoline] |  |  |  | 
48% |  | 74 nM | 38 nM |  | CC1=CC(C)(C)Nc2ccc3c(c21)C(=C1CCCCC1)Oc1c(F)cccc1-3 [Compound 19, 7-fluoro-5-cyclohexylidene-1,2-dihydro-2,2,4-trimethyl-5H-chromeno[3,4-f]quinoline] |  |  |  | 
82% | < 20% | 39 nM | 16 nM | > 1000 nM | CC1=CC(C)(C)Nc2ccc3c(c21)C(=C1CCCCC1)Oc1c(F)cc(F)cc1-3 [Compound 20, 7,9-difluoro-5-cyclohexylidene-1,2-dihydro-2,2,4-trimethyl-5H-chromeno[3,4-f]quinoline] |  |  |  | 
45% |  |  | 32 nM |  | CC1(C)C=Cc2c(ccc3c2C(=C2SCCCS2)Oc2c(F)cccc2-3)N1 [Compound 21, 7-fluoro-5-(1,3-dithia-2-cyclohexylidene)-1,2-dihydro-2,2-dimethyl-5H-chromeno[3,4-f]quinoline] |  |  |  | 
70% | < 20% | 22 nM | 35 nM | > 1000 nM | CC1=CC(C)(C)Nc2ccc3c(c21)C(=C1C=CCCC1)Oc1c(F)cccc1-3 [Compound 23, 7-fluoro-5-(2-cyclohexenylidene)-1,2-dihydro-2,2,4-trimethyl-5H-chromeno[3,4-f]quinoline] |  |  |  | 
100% | < 20% |  |  |  | CC(=O)[C@H]1CC[C@H]2[C@@H]3CCC4=CC(=O)CC[C@]4(C)[C@H]3CC[C@]12C [Prog, progesterone, reference compound] |  |  |  | 
 |  |  |  |  | CC#C[C@]1(O)CC[C@H]2[C@@H]3CCC4=CC(=O)CCC4=C3[C@@H](c3ccc(N(C)C)cc3)C[C@@]21C [RU486, mifepristone, reference compound] |  |  |  | na (na = not active (i.e. efficacy of <20 and potency of >1,000))
< 20% | 99% |  |  |  | CN(C)c1ccc([C@H]2C[C@]3(C)[C@@H](CC[C@]3(O)CCCO)[C@@H]3CCC4=CC(=O)CCC4=C32)cc1 [ZK299, reference compound] |  |  |  | 

SMILES | Emax (PR [1]) | Emax (PR [2]; CV-1 cells) | Ki (hPR-A) | EC50 (PR [1]; [3]) | IC50 (PR [2]; [4]) | EC50 (PR [1]) | IC50 (PR [2]) | melting point | PR Agonist CV-1 Cells Efficacy (PR [1]; CV-1 cells, percent maximal response relative to progesterone)
CC1=CC(C)(C)Nc2ccc3c(c21)C(=C1SCCCS1)Oc1ccc(F)cc1-3 [Compound 10, 9-Fluoro-5-(1,3-dithia-2-cyclohexylidene)-1,2-dihydro-2,2,4-trimethyl-5H-chromeno[3,4-f]quinoline] | 144% | < 20% | 6.3 nM |  |  | 2 nM | > 1000 nM | 120 to 122 °C | 
